# Structures can show the parent of a compound that is named as a salt. Where two headings read alike, the source gives them in different places.
# What was measured:
# Thrombin time = Thrombin time (IC50), Table 80
# human factor Xa = molecular target: T1, human factor Xa (Homo sapiens, UniProt P00742); test: Inhibition of Factor Xa hydrolysis of chromogenic substrate S2222 (Ki); assay type: biochemical; settings: purified human factor Xa, 0.10 M sodium phosphate buffer
# T1 construct: 0.2-0.5 nM human thrombin or human factor Xa; purchased Enzyme Research Laboratories, South Bend, Ind
# Experimental: (§1) The effectiveness of compounds of the present invention as inhibitors of blood coagulation proteases was determined using purified human proteases and synthetic substrates following procedures similar to those described in Kettner et al. (1990).
# (§2) For these assays, the rate of enzymatic (thrombin, Factor Xa, and Factor VIIa) hydrolysis of chromogenic substrates (S2238 (H-D-Phe-Pip-Arg-pNA), S2222, and S2288, respectively; Kabi Pharmacia, Franklin, Ohio) was measured both in the absence and presence of compounds of the present invention. […] A decrease in the rate of absorbance change at 405 nm in the presence of inhibitor is indicative of enzyme inhibition. The results of this assay are expressed as inhibitory constant, Ki.
# (§3) Thrombin and Xa determinations were made in 0.10 M sodium phosphate buffer, pH 7.5, containing 0.20 M NaCl, and 0.5% PEG 8000. VIIa determinations were made in 0.05 M tris buffer, pH 7.6, containing 0.10 M NaCl, 4 mM CaCl2, and 0.1% bovine serum albumin.
# (§4) Reactions were allowed to go for 30 minutes and the velocities (rate of absorbance change vs time) were measured in the time frame of 25-30 minutes. The following relationship was used to calculate Ki values. [formula] where: vo is the velocity of the control in the absence of inhibitor;
# (§5) vs is the velocity in the presence of inhibitor;
# (§6) I is the concentration of inhibitor;
# (§7) Ki is the dissociation constant of the enzyme: inhibitor complex;
# (§8) S is the concentration of substrate;
# (§9) Km is the Michaelis constant.
# human thrombin = human thrombin (Homo sapiens, UniProt P00734); test: Inhibition of thrombin hydrolysis of chromogenic substrate S2238 (Ki); assay type: biochemical; parameters: 0.2-0.5 nM human thrombin or human factor Xa; purchased Enzyme Research Laboratories, South Bend, Ind; settings: purified human thrombin, 0.10 M sodium phosphate buffer, pH 7.5, read-out: Ki values for inhibition of Serine Proteases: Trombin
# Experimental: as §1, §2, §3, §4, §5, §6, §7, §8, §9
# human factor VIIa = molecular target: T2, human factor VIIa (Homo sapiens, UniProt P08709); test: Inhibition of Factor VIIa hydrolysis of chromogenic substrate S2288 (Ki); assay type: biochemical; settings: purified human factor VIIa, 0.05 M tris buffer; for Ki: pH 7.6, read-out: Ki values for inhibition of Serine Proteases: Factor VIIa
# T2 construct: 50 nM human factor VIIa (BiosPacific, Emeryville, Calif.); purchased BiosPacific, Emeryville, Calif
# T2 sequence (P08709 213-466 limits assumed): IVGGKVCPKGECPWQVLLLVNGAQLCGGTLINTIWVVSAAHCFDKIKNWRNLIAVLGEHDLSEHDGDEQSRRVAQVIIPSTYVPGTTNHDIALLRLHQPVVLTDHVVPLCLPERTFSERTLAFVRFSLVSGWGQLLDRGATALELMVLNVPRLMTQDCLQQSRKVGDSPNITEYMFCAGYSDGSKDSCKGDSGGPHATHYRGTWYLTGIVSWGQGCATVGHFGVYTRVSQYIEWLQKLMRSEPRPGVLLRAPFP
# T2 sequence (P08709 61-212 partner limits assumed): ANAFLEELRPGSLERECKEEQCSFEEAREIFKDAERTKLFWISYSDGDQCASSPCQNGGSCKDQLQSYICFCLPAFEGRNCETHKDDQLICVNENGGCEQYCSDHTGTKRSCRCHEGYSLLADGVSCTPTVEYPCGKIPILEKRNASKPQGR
# Experimental: as §1, §2, §3, §4, §5, §6, §7, §8, §9
# [1] = pH 7.5, read-out: Ki values for inhibition of Serine Proteases: Factor Xa
# T1 sequence (P00742 235-488 limits assumed): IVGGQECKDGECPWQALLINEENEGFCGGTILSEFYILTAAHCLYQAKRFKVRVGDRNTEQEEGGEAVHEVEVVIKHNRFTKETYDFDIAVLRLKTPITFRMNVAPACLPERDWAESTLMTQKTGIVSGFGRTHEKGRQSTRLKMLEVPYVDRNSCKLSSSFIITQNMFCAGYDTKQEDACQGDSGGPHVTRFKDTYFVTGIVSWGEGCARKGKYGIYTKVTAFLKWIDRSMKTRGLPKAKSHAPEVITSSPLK
# T1 sequence (P00742 41-179 partner limits assumed): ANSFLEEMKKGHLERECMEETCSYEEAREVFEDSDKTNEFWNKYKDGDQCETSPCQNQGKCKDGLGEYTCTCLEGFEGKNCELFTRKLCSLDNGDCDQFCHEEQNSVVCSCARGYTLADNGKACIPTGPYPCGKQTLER
IC50 (Thrombin time) [nM],"Ki (human factor Xa; pH 7.5, hydrochloride salt, read-out: Ki values for inhibition of Serine Proteases: Factor Xa) [nM]",Ki (human thrombin) [nM],Ki (human factor VIIa) [nM],Ki (human factor Xa; [1]) [nM],IC50 Thrombin time (Thrombin time),Ki values for inhibition of Serine Proteases: Factor Xa (human factor Xa; pH 7.5),Ki values for inhibition of Serine Proteases: Factor VIIa (human factor VIIa; pH 7.6),Compound
< 500,< 500,< 500,< 500,–,–,–,–,"CC(C)(CN(CC(=O)NC(CCCCN)B(O)O)C(=O)CCc1ccccc1)c1ccccc1 (centres unmarked) [Example 53.1.1, Hydrocinnamoyl-[N-(2,2-dimethyl)-phenethyl-Gly]-boroLys--OH hydrochloride salt]"
< 500,–,< 500,< 500,< 500,–,–,–,"CC1(C)C2CC3OB(C(CCCCN)NC(=O)CN(CCc4ccccc4)C(=O)CNS(C)(=O)=O)OC3(C)C1C2 (centres unmarked) [Example 69.3.2, Methanesulfonyl-Gly-[N-(Phenethyl)-Gly]-boroLys-C10H16 HCl]"
< 50000,–,< 500,< 50000,< 500,–,–,–,"CN(CC(=O)NC(CCCCN)B1OC2CC3CC(C3(C)C)C2(C)O1)C(=O)c1ccccc1Sc1ccccc1C#N (centres unmarked) [Example 62.4.3, (2-(2-Cyano)-Thiophenyl)-Benzoyl-Sar-boroLys-C10H16 HCl]"
< 500,–,< 500,< 500,< 50000,–,–,–,"CC1(C)C2CC3OB(C(CCCCN)NC(=O)CN(CCc4ccccc4C4CC4)C(=O)CCc4ccccc4)OC3(C)C1C2 (centres unmarked) [Example 54.1.2, Hydrocinnamoyl-[N-(2-(Cyclopropyl)-Phenethyl)-Gly]-boroLys-C10H16 HCl]"
< 500,–,< 500,–,–,–,–,–,Hydrocinnamoyl-[N-(N(CH3)2)-Gly]-boroLys--OH HCl [Example 72.1.3]
< 500,–,< 500,< 50000,< 500,–,–,–,2-(Thiophenyl)-Benzoyl-Sar-boroOrn(CH=NH)-C10H16 HCl [Example 63.4.1]
< 500,–,< 500,–,–,–,–,–,Hydrocinnamoyl-[N-(Phenethyl)-Gly]-boroOrn(CH=NH)-C10H16 HCl [Example 49.1.2]
< 500,–,< 500,–,< 500,–,–,–,"N=CNCCCC(NC(=O)CN(CCc1ccccc1)C(=O)CCc1ccccc1)B(O)O (centres unmarked) [Example 49.1.3, Hydrocinnamoyl-[N-(Phenethyl)-Gly]-boroOrn(CH=NH)--OH HCl]"
< 500,–,< 500,–,–,–,–,–,"CC1(C)C2CC3OB(C(CCCCN)NC(=O)CN(C(=O)COc4ccccc4)C4CC4)OC3(C)C1C2 (centres unmarked) [Example 79.1.2, Phenoxyacetyl-[N-(Cyclopropyl)-Gly]-boroLys-C10H16 HCl]"
–,–,< 500,< 50000,< 50000,Inactive,–,–,2-Benzyl-(N-Benzyl)-Sar-boroLys--C10 H16 HCl [Example 64.1.1]
< 500,–,< 500,< 500,< 500,–,–,–,Methanesulfonyl-Gly-[N-(N-(Methyl)-Benzyl)-Gly]-boroLys--OH HCl [Example 66.3.2]
< 50000,–,< 500,< 50000,< 50000,–,–,–,Hydrocinnamoyl-Sar-Lys[CH(OH)(OCH3)--C(=O)--OCH3] HCl [Example 61.4.1]
< 500,–,< 500,–,< 50000,–,–,–,"NCCCCC(NC(=O)CN(C(=O)CCc1ccccc1)C1CC1)B(O)O (centres unmarked) [Example 59.4.2, Hydrocinnamoyl-[N-(Cyclopropyl)-Gly]-boroLys--OH HCl]"
< 50000,–,< 500,–,< 500,–,–,–,"CN=C(N)NCCCC(NC(=O)CN(CCc1ccccc1)C(=O)CCc1ccccc1)B1OC2CC3CC(C3(C)C)C2(C)O1 (centres unmarked) [Example 49.2.1, Hydrocinnamoyl-[N-(Phenethyl)-Gly]-boroArg(CH3)-C10H16 HCl]"
< 50000,–,< 500,–,–,–,–,–,"CN(CC(=O)NC(CCCCN)B1OC2CC3CC(C3(C)C)C2(C)O1)Cc1ccccc1Cn1cccc1 (centres unmarked) [Example 64.1.3, Pinanediol N-{N-methyl-N-[2-(pyrrol-1-ylmethyl)-Benzyl]glycyl}-1-amido-5-aminopentaneboronate, hydrochloride salt]"
< 50000,–,< 500,–,–,–,–,–,"CN(c1ccccc1)N(CC(=O)NC(CCCCN)B1OC2CC3CC(C3(C)C)C2(C)O1)C(=O)CCc1ccccc1 (centres unmarked) [Example 54.2.1, Hydrocinnamoyl-[N-(N-(Methyl)-Phenyl)-Gly]-boroLys-C10H16 HCl]"

IC50 (Thrombin time) [nM],"Ki (human factor Xa; pH 7.5, hydrochloride salt, read-out: Ki values for inhibition of Serine Proteases: Factor Xa) [nM]",Ki (human thrombin) [nM],Ki (human factor VIIa) [nM],Ki (human factor Xa; [1]) [nM],IC50 Thrombin time (Thrombin time),Ki values for inhibition of Serine Proteases: Factor Xa (human factor Xa; pH 7.5),Ki values for inhibition of Serine Proteases: Factor VIIa (human factor VIIa; pH 7.6),Compound
< 50000,–,< 500,–,–,–,–,–,Hydrocinnamoyl-[N-(N-(Methyl)-Benzyl)-Gly]-boroLys-C10H16 HCl [Example 54.2.2]
< 500,–,< 500,–,–,–,–,–,"NCCCCC(NC(=O)CN(C(=O)Cc1cccs1)C1CC1)B(O)O (centres unmarked) [Example 78.1.3, Thiophenacetyl-[N-(Cyclopropyl)-Gly]-boroLys--OH HCl]"
< 500,–,< 500,–,< 50000,–,–,–,Hydrocinnamoyl-[N-(Cyclopropyl)-Gly]-boroOrn(CH=NH)--OH HCl [Example 57.4.2]
< 500,–,< 500,–,–,–,–,–,"NCCCCC(NC(=O)CN(C(=O)COc1ccccc1)C1CC1)B(O)O (centres unmarked) [Example 78.1.2, Phenoxyacetyl-[N-(Cyclopropyl)-Gly]-boroLys--OH HCl]"
< 50000,–,< 500,–,–,–,–,–,"CN(CC(=O)NC(CCCCN)B(O)O)Cc1ccccc1Cn1cccc1 (centres unmarked) [Example 65.1.3, N-{N-methyl-N-[2-(pyrrol-1-ylmethyl)-Benzyl]glycyl}-1-amido-5-aminopentaneboronic acid, hydrochloride salt]"
–,–,< 50000,< 50000,< 50000,–,–,–,CN(CC(=O)NC(CCCN=[N+]=[N-])B1OC2CC3CC(C3(C)C)C2(C)O1)C(=O)c1ccccc1Sc1ccccc1C#N (centres unmarked) [Example 62.2.1]
–,–,< 500,< 50000,< 50000,–,–,–,"CC(C)(CC(=O)O)CC(=O)N(CCc1ccccc1)CC(=O)NC(CCCCN)B1OC2CC3CC(C3(C)C)C2(C)O1 (centres unmarked) [Example 67.1.2, Glutaryl(3,3-Dimethyl)-[N-(Phenethyl)-Gly]-boroLys-C10H16]"
–,–,< 50000,–,–,–,Inactive,Inactive,Hydrocinnamoyl-Sar-Lys(Z)--C(=O)--O-(CH2)2--NH(Z) [Example 61.1.2]
< 50000,–,< 500,–,–,–,–,–,Hydrocinnamoyl-[N-(N-(Methyl)-Phenyl)-Gly]-boroLys--OH HCl [Example 53.2.1]
–,–,< 500,< 500,< 500,–,–,–,"CN(CC(=O)NC(CCCNC(=N)N)B1OC2CC3CC(C3(C)C)C2(C)O1)C(=O)c1ccccc1Sc1ccccc1C#N (centres unmarked) [Example 62.3.3, 2-(2-cyanothiophenyl)-benzoyl-Sar-BoroArg C10 H16.HCl]"
–,–,< 500,< 500,< 50000,–,–,–,"CC(=O)N(CC(=O)NC(CCCCN)B1OC2CC3CC(C3(C)C)C2(C)O1)Cc1ccccc1Cc1ccccc1 (centres unmarked) [Example 64.1.2, Acetyl-Gly[N-(2-(Benzyl)-Benzyl)]-boroLys-C10H16 HCl]"
< 500,–,< 500,–,–,–,–,–,Hydrocinnamoyl-[N-(N(CH3)2)-Gly]-boroOrn(CH=NH)-C10H16 HCl [Example 50.1.2]
< 500,–,< 500,–,–,–,–,–,"CC1(C)C2CC3OB(C(CCCCN)NC(=O)CN(C(=O)Cc4cccs4)C4CC4)OC3(C)C1C2 (centres unmarked) [Example 79.1.3, Thiophenacetyl-[N-(Cyclopropyl)-Gly]-boroLys-C10H16 HCl]"
–,–,< 500,< 50000,< 500,–,–,–,"CN(CC(=O)NC(CCCCNC(=N)N)B1OC2CC3CC(C3(C)C)C2(C)O1)C(=O)c1ccccc1Sc1ccccc1C#N (centres unmarked) [Example 62.3.2, (2-(2-Cyano)-Thiophenyl)-Benzoyl-Sar-borohomoArg-C10H16 HCl]"
–,–,< 500,< 50000,< 50000,–,–,–,Hydrocinnamoyl-Sar-Lys[C(O)CO2 H] [Example 61.1.1]
–,–,< 500,< 500,< 500,–,–,–,Hydrocinnamoyl-[N-(2-(Cyclopropyl)-Phenethyl)-Gly]-boroOrn(CH=NH)--OH HCl [Example 57.1.2]

# — patent US6060462A, “Electrophilic peptide analogs as inhibitors of trypsin-like enzymes” (DuPont Pharmaceuticals Company, priority 1997, dated 2000)
